According to PMC7316778 (Nature Communications, 2020):
“And” between values parts separate entries of the source, which are not always exact repeats. Equal values may be shown once. Read-outs that look alike come from different tables or passages of the source.

Columns and labels:
Assay in all cases: SelectScreen kinase assay
[1] = molecular target: ABL1 (Homo sapiens, UniProt P00519)
Description: (§1) Selectivity profiling assays were performed by the Invitrogen SelectScreen™ Services. […] The concentration of ATP was selected to be equal to the KM, unless indicated otherwise.

[2] = molecular target: T1, DCAMKL2 (DCK2) (Homo sapiens, UniProt Q8N568)
T1 sequence (Q8N568 1-766): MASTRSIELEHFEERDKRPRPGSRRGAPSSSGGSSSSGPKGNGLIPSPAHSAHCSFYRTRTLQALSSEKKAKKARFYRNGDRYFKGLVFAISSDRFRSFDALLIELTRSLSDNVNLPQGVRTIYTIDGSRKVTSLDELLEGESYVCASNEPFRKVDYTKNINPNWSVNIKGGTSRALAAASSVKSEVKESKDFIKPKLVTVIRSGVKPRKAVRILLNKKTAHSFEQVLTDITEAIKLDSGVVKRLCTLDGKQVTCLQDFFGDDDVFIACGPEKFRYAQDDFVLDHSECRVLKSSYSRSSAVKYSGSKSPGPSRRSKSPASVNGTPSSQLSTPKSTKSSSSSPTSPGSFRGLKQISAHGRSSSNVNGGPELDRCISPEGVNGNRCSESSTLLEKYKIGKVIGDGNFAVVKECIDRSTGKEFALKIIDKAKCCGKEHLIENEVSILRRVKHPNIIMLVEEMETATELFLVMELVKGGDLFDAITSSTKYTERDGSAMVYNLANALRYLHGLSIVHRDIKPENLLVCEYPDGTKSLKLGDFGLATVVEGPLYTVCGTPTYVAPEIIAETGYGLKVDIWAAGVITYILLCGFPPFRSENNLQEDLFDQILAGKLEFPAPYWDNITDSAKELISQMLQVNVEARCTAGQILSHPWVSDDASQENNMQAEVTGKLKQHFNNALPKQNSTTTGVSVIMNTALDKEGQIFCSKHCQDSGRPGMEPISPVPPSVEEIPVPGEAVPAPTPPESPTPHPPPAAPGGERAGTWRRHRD
Description: as §1

[3] = molecular target: T2, IRAK3 (Homo sapiens, UniProt Q9Y616)
T2 sequence (Q9Y616 1-596): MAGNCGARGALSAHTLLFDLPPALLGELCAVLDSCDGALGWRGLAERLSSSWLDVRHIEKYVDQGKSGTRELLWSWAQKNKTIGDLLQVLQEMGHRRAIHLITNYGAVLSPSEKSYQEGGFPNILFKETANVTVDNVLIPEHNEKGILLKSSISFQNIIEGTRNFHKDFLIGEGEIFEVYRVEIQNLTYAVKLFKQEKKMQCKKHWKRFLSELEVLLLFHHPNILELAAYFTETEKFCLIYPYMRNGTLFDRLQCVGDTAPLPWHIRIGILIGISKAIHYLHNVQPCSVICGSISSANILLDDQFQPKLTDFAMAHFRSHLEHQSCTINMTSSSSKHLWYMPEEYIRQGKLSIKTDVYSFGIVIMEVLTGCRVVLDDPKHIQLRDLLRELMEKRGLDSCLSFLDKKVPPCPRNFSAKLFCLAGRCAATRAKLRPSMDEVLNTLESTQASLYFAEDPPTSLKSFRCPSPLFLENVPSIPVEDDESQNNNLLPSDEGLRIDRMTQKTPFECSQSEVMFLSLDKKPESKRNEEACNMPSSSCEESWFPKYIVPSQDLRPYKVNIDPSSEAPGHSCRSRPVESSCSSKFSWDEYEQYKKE
Description: as §1

[4] = molecular target: MAP3K2 (MEKK2) (Homo sapiens, UniProt Q9Y2U5)
Description: as §1

[5] = molecular target: MARK3 (Homo sapiens, UniProt P27448)
Description: as §1

[6] = molecular target: RPS6KA1 (RSK1) (Homo sapiens, UniProt Q15418)
Description: as §1

[7] = molecular target: T3, ULK1 (Homo sapiens, UniProt O75385)
T3 sequence (O75385 1-1050): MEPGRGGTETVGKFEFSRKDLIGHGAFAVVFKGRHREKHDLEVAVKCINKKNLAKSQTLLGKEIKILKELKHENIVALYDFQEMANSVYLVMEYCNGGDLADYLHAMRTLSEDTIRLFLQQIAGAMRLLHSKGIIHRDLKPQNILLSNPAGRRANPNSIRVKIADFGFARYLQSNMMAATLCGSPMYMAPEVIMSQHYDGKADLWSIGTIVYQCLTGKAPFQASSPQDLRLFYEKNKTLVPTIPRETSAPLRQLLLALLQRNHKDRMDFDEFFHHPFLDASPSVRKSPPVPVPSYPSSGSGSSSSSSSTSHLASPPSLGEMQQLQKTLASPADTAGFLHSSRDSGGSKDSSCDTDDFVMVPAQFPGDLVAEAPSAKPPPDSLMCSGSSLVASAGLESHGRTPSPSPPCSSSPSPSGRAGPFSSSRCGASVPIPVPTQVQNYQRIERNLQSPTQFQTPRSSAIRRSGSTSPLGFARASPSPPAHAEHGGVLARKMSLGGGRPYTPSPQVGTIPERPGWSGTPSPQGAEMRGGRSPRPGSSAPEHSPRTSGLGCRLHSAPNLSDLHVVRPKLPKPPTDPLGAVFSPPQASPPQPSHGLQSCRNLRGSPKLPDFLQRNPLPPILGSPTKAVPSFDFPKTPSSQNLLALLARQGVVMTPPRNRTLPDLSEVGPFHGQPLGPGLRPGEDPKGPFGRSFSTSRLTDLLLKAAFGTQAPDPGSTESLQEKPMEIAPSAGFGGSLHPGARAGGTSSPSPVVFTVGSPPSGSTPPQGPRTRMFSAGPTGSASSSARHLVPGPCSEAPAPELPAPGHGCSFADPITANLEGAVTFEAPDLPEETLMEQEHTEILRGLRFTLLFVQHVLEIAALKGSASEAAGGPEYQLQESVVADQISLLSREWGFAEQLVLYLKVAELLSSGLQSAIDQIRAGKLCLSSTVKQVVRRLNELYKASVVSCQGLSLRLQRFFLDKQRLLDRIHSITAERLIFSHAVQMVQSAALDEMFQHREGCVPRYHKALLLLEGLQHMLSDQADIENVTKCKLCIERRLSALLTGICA
Description: as §1

[8] = 1 h, 1 μM WEL028, 1 h preincubation

Chain of RPS6KA1 (RSK1) (Q15418 whole entry): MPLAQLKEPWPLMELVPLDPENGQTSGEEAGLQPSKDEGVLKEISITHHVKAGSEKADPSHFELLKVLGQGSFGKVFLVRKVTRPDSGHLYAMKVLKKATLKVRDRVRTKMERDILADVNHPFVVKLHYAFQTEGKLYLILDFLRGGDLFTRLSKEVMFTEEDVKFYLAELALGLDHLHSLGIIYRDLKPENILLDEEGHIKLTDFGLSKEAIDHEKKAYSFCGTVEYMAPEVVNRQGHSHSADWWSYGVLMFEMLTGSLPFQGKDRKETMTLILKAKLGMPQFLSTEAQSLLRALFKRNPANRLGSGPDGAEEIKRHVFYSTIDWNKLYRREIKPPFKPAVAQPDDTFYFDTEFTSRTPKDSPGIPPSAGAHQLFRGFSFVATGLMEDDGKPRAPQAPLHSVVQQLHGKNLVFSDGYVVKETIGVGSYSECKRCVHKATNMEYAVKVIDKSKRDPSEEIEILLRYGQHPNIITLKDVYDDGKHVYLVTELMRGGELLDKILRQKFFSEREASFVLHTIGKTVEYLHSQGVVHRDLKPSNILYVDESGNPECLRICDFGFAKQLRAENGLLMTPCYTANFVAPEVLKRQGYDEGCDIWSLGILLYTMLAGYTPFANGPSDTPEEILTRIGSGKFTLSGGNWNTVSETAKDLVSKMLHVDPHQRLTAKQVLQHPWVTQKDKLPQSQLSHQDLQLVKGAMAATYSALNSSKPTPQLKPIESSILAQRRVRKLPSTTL
Chain of MAP3K2 (MEKK2) (Q9Y2U5 whole entry): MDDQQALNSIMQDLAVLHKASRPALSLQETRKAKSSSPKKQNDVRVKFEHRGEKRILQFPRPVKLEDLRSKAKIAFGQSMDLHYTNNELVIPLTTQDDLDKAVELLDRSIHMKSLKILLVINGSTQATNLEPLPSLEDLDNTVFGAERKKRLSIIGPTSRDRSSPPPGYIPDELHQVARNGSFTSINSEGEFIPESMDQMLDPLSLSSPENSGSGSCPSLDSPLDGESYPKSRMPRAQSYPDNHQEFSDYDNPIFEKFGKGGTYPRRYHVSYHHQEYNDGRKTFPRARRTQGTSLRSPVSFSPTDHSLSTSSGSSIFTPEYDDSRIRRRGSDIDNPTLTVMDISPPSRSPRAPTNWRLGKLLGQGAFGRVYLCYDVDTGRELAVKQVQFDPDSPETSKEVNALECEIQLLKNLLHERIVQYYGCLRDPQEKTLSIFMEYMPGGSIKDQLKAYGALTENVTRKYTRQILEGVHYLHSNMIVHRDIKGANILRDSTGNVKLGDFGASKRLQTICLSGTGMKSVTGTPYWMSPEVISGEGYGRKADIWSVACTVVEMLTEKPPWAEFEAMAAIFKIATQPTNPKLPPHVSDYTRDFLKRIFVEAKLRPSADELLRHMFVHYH
Chain of ABL1 (P00519 whole entry): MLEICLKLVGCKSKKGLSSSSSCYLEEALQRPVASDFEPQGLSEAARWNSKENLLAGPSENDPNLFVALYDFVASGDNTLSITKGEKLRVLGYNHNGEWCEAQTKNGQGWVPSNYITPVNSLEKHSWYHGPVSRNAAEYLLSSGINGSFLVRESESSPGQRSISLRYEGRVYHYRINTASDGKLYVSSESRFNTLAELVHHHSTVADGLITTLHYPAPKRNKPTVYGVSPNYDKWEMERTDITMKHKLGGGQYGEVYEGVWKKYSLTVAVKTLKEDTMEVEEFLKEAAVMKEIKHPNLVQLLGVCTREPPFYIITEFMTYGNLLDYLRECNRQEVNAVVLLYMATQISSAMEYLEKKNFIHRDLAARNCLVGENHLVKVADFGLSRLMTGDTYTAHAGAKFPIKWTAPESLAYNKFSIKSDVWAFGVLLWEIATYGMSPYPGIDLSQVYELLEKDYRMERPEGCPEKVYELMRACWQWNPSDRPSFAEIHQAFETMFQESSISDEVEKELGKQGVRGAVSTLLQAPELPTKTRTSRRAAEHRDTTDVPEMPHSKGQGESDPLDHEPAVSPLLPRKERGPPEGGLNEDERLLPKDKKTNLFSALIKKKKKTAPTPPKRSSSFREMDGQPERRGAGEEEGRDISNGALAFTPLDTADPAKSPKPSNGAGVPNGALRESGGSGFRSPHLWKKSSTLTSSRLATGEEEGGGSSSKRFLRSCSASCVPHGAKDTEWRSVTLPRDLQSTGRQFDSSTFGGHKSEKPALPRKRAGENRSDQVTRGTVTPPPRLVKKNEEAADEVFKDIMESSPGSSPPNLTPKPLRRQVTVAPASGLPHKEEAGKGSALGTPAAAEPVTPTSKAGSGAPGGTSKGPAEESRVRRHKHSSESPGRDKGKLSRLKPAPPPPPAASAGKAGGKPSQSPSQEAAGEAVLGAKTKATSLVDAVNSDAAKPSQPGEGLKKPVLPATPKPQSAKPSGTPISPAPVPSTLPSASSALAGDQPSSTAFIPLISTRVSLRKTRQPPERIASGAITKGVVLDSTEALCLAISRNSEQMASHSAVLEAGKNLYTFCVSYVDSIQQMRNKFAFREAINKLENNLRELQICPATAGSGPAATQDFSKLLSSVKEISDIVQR
Chain of MARK3 (P27448 whole entry): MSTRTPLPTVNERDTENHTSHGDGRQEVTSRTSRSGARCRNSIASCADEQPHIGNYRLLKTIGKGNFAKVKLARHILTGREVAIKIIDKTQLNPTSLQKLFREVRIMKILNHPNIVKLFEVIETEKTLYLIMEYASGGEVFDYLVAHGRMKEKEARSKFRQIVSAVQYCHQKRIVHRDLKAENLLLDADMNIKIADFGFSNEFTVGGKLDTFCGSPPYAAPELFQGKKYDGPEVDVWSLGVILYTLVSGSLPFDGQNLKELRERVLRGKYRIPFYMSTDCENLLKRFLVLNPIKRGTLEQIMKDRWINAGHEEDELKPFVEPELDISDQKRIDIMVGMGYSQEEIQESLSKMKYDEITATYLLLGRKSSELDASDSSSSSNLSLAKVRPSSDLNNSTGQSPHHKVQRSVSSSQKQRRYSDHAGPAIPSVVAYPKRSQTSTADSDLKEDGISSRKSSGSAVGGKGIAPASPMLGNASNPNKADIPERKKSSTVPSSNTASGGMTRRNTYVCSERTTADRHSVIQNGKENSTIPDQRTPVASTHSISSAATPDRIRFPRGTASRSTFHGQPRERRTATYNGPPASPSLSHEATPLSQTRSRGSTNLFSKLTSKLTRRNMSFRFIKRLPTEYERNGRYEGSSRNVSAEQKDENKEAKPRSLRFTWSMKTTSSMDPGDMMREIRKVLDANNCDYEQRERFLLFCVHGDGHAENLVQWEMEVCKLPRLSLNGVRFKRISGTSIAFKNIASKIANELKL

Compound: C#CCOc1ccc(Nc2ncc(Cl)c(Nc3ccccc3NC(=O)C=C)n2)c(OC)c1 [Compound 6]
- inhibition at 1 µM [1, 8]: -3%
- Inhibition at 1 µM (%) ([1]; ABL1, 1 µM, ZLYTE, ATP Km app, listed as WEL028, 1 µM): -7% and 1%
- inhibition at 1 µM [2, 8]: 3%
- Inhibition at 1 µM (%) ([2]; DCAMKL2 (DCK2), 1 µM, ZLYTE, ATP Km app, listed as WEL028, 1 µM): 2%
- inhibition at 1 µM ([2]; read-out: Inhibition at 1 µM (%), DCAMKL2 (DCK2), 1 µM, ZLYTE, ATP Km app): 4%
- inhibition at 1 µM [3, 8]: 56%
- Inhibition at 1 µM (%) ([3]; IRAK3, 1 µM, LanthaScreen Binding, listed as WEL028, 1 µM): 58%
- inhibition at 1 µM ([3]; read-out: Inhibition at 1 µM (%), IRAK3, 1 µM, LanthaScreen Binding): 55%
- inhibition at 1 µM [4, 8]: 3%
- Inhibition at 1 µM (%) ([4]; MAP3K2 (MEKK2), 1 µM, LanthaScreen Binding, listed as WEL028, 1 µM): 6% and 1%
- inhibition at 1 µM [5, 8]: 6%
- Inhibition at 1 µM (%) ([5]; MARK3, 1 µM, ZLYTE, ATP Km app, listed as WEL028, 1 µM): 8%
- inhibition at 1 µM ([5]; read-out: Inhibition at 1 µM (%), MARK3, 1 µM, ZLYTE, ATP Km app): 5%
- Inhibition at 1 µM (%) ([6]; 1 µM, ZLYTE, ATP Km app, listed as WEL028, 1 µM): 0% and 10%
- inhibition at 1 µM [6, 8]: 5%
- Inhibition (%) ([7]; 1 μM WEL028, 1 h preincubation): 4%
- Inhibition at 1 µM (%) ([7]; 1 µM, LanthaScreen Binding, listed as WEL028, 1 µM): 4%
- inhibition at 1 µM ([7]; read-out: Inhibition at 1 µM (%), 1 µM, LanthaScreen Binding): 5%
